The values that follow come from patent publication US8563542B2 (Cyclacel Limited, priority 2007, dated 2013).

In assay [1] the target is PLK1 (Homo sapiens, UniProt P53350). Description: PLK1 protein kinase assay (CDC25C phosphorylation, [γ-32P]-ATP). Type of assay: biochemical. The conditions noted are these: read-out: PLK1 IC50.
For assay [2], the target named is T1, AA (Homo sapiens, UniProt O14965).
T1 sequence (O14965 1-403): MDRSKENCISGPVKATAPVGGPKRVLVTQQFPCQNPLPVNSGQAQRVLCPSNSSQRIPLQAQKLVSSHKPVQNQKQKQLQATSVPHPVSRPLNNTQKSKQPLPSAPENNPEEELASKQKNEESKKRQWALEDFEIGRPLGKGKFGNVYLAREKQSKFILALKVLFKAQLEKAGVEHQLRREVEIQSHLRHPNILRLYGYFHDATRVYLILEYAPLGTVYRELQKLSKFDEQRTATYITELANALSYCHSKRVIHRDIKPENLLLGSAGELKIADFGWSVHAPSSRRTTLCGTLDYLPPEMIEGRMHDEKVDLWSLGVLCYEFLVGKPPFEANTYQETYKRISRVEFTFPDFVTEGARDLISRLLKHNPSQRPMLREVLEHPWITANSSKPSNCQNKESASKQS
Description: AA IC50 (Table 1; no method given). Type of assay: biochemical.

[3] abbreviates: Table 2, PLK1 IC50, class symbols.
[4] abbreviates: Table 2, AurA IC50, class symbols, read-out: AurA IC50.

Like-named read-outs stand apart in the source and are kept apart here. A value given as a limit tells only on which side of the number the result lay.

Sequence of PLK1 (P53350 whole entry): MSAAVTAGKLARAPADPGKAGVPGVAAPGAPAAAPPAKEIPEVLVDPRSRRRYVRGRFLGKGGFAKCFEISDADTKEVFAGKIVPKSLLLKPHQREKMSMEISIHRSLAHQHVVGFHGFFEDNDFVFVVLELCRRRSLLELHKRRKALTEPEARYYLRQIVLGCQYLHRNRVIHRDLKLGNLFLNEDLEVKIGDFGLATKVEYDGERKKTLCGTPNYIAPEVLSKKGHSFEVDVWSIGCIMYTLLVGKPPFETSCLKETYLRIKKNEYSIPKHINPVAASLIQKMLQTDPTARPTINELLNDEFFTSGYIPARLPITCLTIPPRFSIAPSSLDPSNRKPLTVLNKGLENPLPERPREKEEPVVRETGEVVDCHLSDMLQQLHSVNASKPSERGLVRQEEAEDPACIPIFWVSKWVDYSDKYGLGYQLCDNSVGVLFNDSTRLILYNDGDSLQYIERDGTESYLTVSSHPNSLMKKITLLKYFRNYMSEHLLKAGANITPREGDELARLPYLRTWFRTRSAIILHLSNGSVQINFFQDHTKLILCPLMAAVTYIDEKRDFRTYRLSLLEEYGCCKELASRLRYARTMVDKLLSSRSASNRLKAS

Usually IC50 stands for the concentration needed to halve the response being measured. On to `Cc1cc(Nc2ncc3c(n2)N(C2CCCC2)CCC(=O)N3C)ccc1NC(=O)C1CC1` [compound 179, Cyclopropanecarboxylic acid [4-(9-cyclopentyl-5-methyl-6-oxo-6,7,8,9-tetrahydro-5H-pyrimido[4,5-b][1,4]diazepin-2-ylamino)-2-methyl-phenyl]-amide], for which the values for the IC50 in assay [1] (setting [3]) and in assay [2] (setting [4]) were below 10 µM and below 100 nM, respectively.
For `COc1cc(C(=O)N(C)C)ccc1Nc1ncc2c(n1)N(C1CCCC1)CCC(=O)N2C` [compound 88, 4-(9-Cyclopentyl-5-methyl-6-oxo-6,7,8,9-tetrahydro-5H-pyrimido[4,5-b][1,4]diazepin-2-ylamino)-3-methoxy-N,N-dimethyl-benzamide], the figures for the IC50 in assay [1] (setting [3]) and in assay [2] (setting [4]) were below 1 µM and below 10000 nM, respectively.
On to `Cc1cccc(Nc2ncc3c(n2)N(C2CCCC2)CCC(=O)N3C)c1` [compound 137, 9-Cyclopentyl-5-methyl-2-m-tolylamino-5,7,8,9-tetrahydro-pyrimido[4,5-b][1,4]diazepin-6-one], for which the IC50 was below 10 µM in assay [1] (setting [3]) and below 100 nM in assay [2] (setting [4]).
For `CN1C(=O)C2(CC2)CN(C2CCCC2)c2nc(Nc3ccc4c(c3)CS(=O)(=O)C4)ncc21` [compound 78, (9-Cyclopentyl-2-(2,2-dioxo-2,3-dihydro-1H-2lambda*6*-benzo[c]thiophen-5-ylamino)5-methyl-6-oxo-6,7,8,9-tetrahydro-5H-spiro[pyrimido[4,5-b][1,4]diazepin-3,1′-cyclopropane]], in that order: below 1 µM and below 100 nM.
For the compound `CN1CCC(NS(=O)(=O)c2ccc(Nc3ncc4c(n3)N(C3CCCC3)CCC(=O)N4C)cc2)CC1` [compound 61, 4-(9-Cyclopentyl-5-methyl-6-oxo-6,7,8,9-tetrahydro-5H-pyrimido[4,5-b][1,4]diazepin-2-ylamino)-N-(1-methyl-piperidin-4-yl)-benzenesulfonamide], the figures for the IC50 in assay [1] (setting [3]) and in assay [2] (setting [4]) were below 10 µM and below 1000 nM, respectively.
For the compound `COc1cc(C(=O)O)ccc1Nc1ncc2c(n1)N(C1CCCC1)CCC(=O)N2C` [compound 1, 4-(9-Cyclopentyl-5-methyl-6-oxo-6,7,8,9-tetrahydro-5H-pyrimido[4,5-b][1,4]diazepin-2-ylamino)-3-methoxy-benzoic acid], the IC50 in assay [1] (Table 1) is below 1 µM; in assay [2] (Table 1, read-out: AA IC50) it was 1000 to 10000 nM.
Consider `CN1C(=O)CCN(C2CCCC2)c2nc(Nc3cccc(CN)c3)ncc21` [compound 91, 2-(3-Aminomethyl-phenylamino)-9-cyclopentyl-5-methyl-5,7,8,9-tetrahydro-pyrimido[4,5-b][1,4]diazepin-6-one], for which the half-inhibitory concentration (IC50) is below 10 µM in assay [1] (setting [3]) and below 1000 nM in assay [2] (setting [4]).
For `Cc1ccc(N2CCC(=O)N(C)c3cnc(Nc4ccc5c(c4)CS(=O)(=O)C5)nc32)cc1` [compound 290, 2-(2,2-Dioxo-2,3-dihydro-1H-2lambda*6*- benzo[c]thiophen-5-ylamino)-5-methyl-9-p-tolyl-5,7,8,9-tetrahydro-pyrimido[4,5-b][1,4]diazepin-6-one], in that order: below 10 µM and below 100 nM.
Regarding `COc1cc(C(=O)NC2CCN(C)CC2)ccc1Nc1ncc2c(n1)N(C(C)(C)C)CCC(=O)N2C` [compound 42, 4-(9-tert-Butyl-5-methyl-6-oxo-6,7,8,9-tetrahydro-5H-pyrimido[4,5-b][1,4]diazepin-2-ylamino)-3-methoxy-N-(1-methyl-piperidin-4-yl)-benzamide], the IC50 was below 10 µM in assay [1] (setting [3]) and below 1000 nM in assay [2] (setting [4]).
For `CN1C(=O)CCN(C2CCCC2)c2nc(NCc3cccc4c3OCCO4)ncc21` [compound 128, 9-Cyclopentyl-2-[(2,3-dihydro-benzo[1,4]dioxin-5-ylmethyl)-amino]-5-methyl-5,7,8,9-tetrahydro-pyrimido[4,5-b][1,4]diazepin-6-one], in that order: below 1 µM and below 10000 nM.
As for `CN1C(=O)CCN(C2CCCC2)c2nc(Nc3ccc4c(c3)OCC(=O)N4)ncc21` [compound 294, 9-Cyclopentyl-5-methyl-2-(3-oxo-3,4-dihydro-2H-benzo[1,4]oxazin-7-ylamino)-5,7,8,9-tetrahydro-pyrimido[4,5-b][1,4]diazepin-6-one], the IC50 in assay [1] (setting [3]) is below 1 µM; in assay [2] (setting [4]), below 1000 nM.
For `CN1CCC(NC(=O)c2cccc(Nc3ncc4c(n3)N(C3CCCC3)CCC(=O)N4C)c2)CC1` [compound 57, 3-(9-Cyclopentyl-5-methyl-6-oxo-6,7,8,9-tetrahydro-5H-pyrimido[4,5-b][1,4]diazepin-2-ylamino)-N-(1-methyl-piperidin-4-yl)-benzamide], in that order: below 10 µM and below 1000 nM.
On to `COc1cc(C(N)=O)ccc1Nc1ncc2c(n1)N(C1CCCC1)CCC(=O)N2C` [compound 89, 4-(9-Cyclopentyl-5-methyl-6-oxo-6,7,8,9-tetrahydro-5H-pyrimido[4,5-b][1,4]diazepin-2-ylamino)-3-methoxy-benzamide], for which the concentration for half-maximal inhibition (IC50) in assay [1] (setting [3]) is below 0.1 µM; in assay [2] (setting [4]) it was below 10000 nM.
For `CN1C(=O)CCN(C2CCCC2)c2nc(Nc3ccc(S(C)(=O)=O)cc3)ncc21` [compound 55, 9-Cyclopentyl-2-(4-methanesulfonyl-phenylamino)-5-methyl-5,7,8,9-tetrahydro-pyrimido[4,5-b][1,4]diazepin-6-one], in that order: below 10 µM and below 100 nM.
For `CN1C(=O)CCN(C2CCCC2)c2nc(Nc3cccc(C(=O)O)c3)ncc21` [compound 56, 3-(9-Cyclopentyl-5-methyl-6-oxo-6,7,8,9-tetrahydro-5H-pyrimido[4,5-b][1,4]diazepin-2-ylamino)-benzoic acid], the IC50 is below 1 µM in assay [1] (setting [3]) and below 1000 nM in assay [2] (setting [4]).
On to `CN1C(=O)CCN(C2CCCC2)c2nc(Nc3ccccc3)ncc21` [compound 70, 9-Cyclopentyl-5-methyl-2-phenylamino-5,7,8,9-tetrahydro-pyrimido[4,5-b][1,4]diazepin-6-one], for which the IC50 is below 10 µM in assay [1] (setting [3]) and below 1000 nM in assay [2] (setting [4]).
For `CN1C(=O)CCN(C2CCCC2)c2nc(Nc3ccc(C(=O)NC4CC4)cc3)ncc21` [compound 176, 4-(9-Cyclopentyl-5-methyl-6-oxo-6,7,8,9-tetrahydro-5H-pyrimido[4,5-b][1,4]diazepin-2-ylamino)-N-cyclopropyl-benzamide], in that order: below 1 µM and below 100 nM.
For `CCC1CN(C2CCCC2)c2nc(Nc3ccc4c(c3)CS(=O)(=O)C4)ncc2N(C)C1=O` (centres unmarked) [compound 74, 9-Cyclopentyl-2-(2,2-dioxo-2,3-dihydro-1H-2lambda*6*-benzo[c]thiophen-5-ylamino)-7-ethyl-5-methyl-5,7,8,9-tetrahydro-pyrimido[4,5-b][1,4]diazepin-6-one], in that order: below 1 µM and below 100 nM.
For `CN1C(=O)CCN(C2CCCC2)c2nc(Nc3ccc(S(=O)(=O)NCc4ccccc4)cc3)ncc21` [compound 93, N-Benzyl-4-(9-cyclopentyl-5-methyl-6-oxo-6,7,8,9-tetrahydro-5H-pyrimido[4,5-b][1,4]diazepin-2-ylamino)-benzenesulfonamide], the IC50 was below 10 µM in assay [1] (setting [3]) and below 100 nM in assay [2] (setting [4]).
For `CNS(=O)(=O)c1ccc(Nc2ncc3c(n2)N(C2CCCC2)CCC(=O)N3C)cc1` [compound 96, 4-(9-Cyclopentyl-5-methyl-6-oxo-6,7,8,9-tetrahydro-5H-pyrimido[4,5-b][1,4]diazepin-2-ylamino)-N-methyl-benzenesulfonamide], in that order: below 10 µM and below 100 nM.
For `COCCNS(=O)(=O)c1cccc(Nc2ncc3c(n2)N(C2CCCC2)CCC(=O)N3C)c1` [compound 108, 3-(9-Cyclopentyl-5-methyl-6-oxo-6,7,8,9-tetrahydro-5H-pyrimido[4,5-b][1,4]diazepin-2-ylamino)-N-(2-methoxy-ethyl)-benzenesulfonamide], in that order: below 10 µM and below 1000 nM.
Turning to `CN1C(=O)CCN(C2CCCC2)c2nc(Nc3ccc(NC(=O)C4CC4)cc3)ncc21` [compound 178, Cyclopropanecarboxylic acid [4-(9-cyclopentyl-5-methyl-6-oxo-6,7,8,9-tetrahydro-5H-pyrimido[4,5-b][1,4]diazepin-2-ylamino)-phenyl]-amide], the IC50 in assay [1] (setting [3]) was below 1 µM; in assay [2] (setting [4]), below 100 nM.
For `CN1C(=O)CCN(C2CCCC2)c2nc(Nc3ccc4c(c3)OCC(=O)N4)ncc21` [compound 298, 9-Cyclopentyl-5-methyl-2-(3-oxo-3,4-dihydro-2H-benzo[1,4]oxazin-7-ylamino)-5,7,8,9-tetrahydro-pyrimido[4,5-b][1,4]diazepin-6-one], in that order: below 1 µM and below 1000 nM.
As to `CC(=O)Nc1ccc(Nc2ncc3c(n2)N(C2CCCC2)CCC(=O)N3C)cc1Cl` [compound 324, N-[2-Chloro-4-(9-cyclopentyl-5-methyl-6-oxo-6,7,8,9-tetrahydro-5H-pyrimido[4,5-b][1,4]diazepin-2-ylamino)-phenyl]-acetamide], the IC50 in assay [1] (setting [3]) was below 10 µM; in assay [2] (setting [4]) it was below 1000 nM.
For the compound `CN1C(=O)CCN(C2CCCC2)c2nc(Nc3ccc(N4CCOCC4)cc3)ncc21` [compound 51, 9-Cyclopentyl-5-methyl-2-(4-morpholin-4-yl-phenylamino)-5,7,8,9-tetrahydro-pyrimido[4,5-b][1,4]diazepin-6-one], the IC50 in assay [1] (setting [3]) is below 1 µM; in assay [2] (setting [4]), below 1000 nM.
